Source: PMC6584500, “Small-molecule targeting of MUSASHI RNA-binding activity in acute myeloid leukemia” (Nature Communications, 2019)
Like-named read-outs stand apart in the source and are kept apart here. One block for each molecule: values may come before it.

Experiments:
[1] = target: T1, GST-MSI2 (full-length human MSI2) (Homo sapiens, UniProt Q96DH6); assay: microscale thermophoresis; format: binding
T1 construct: full-length, N-terminal GST-Flag tag kept (pGEX6P3), expressed in E. coli BL21(DE3)

[2] = target: T1, GST-MSI2 (full-length human MSI2); assay: fluorescence polarization, RNA-binding inhibition; format: biochemical; details: Cy3-C9-rGUAGUAGU RNA oligo, 384-well; no inhibition
[3] = target: T2, GST-SYNCRIP (Homo sapiens, UniProt O60506); assay: microscale thermophoresis; format: binding
T2 construct: N-terminal GST-Flag tag kept (pGEX6P3), expressed in E. coli BL21(DE3)
T2 sequence (O60506 1-623): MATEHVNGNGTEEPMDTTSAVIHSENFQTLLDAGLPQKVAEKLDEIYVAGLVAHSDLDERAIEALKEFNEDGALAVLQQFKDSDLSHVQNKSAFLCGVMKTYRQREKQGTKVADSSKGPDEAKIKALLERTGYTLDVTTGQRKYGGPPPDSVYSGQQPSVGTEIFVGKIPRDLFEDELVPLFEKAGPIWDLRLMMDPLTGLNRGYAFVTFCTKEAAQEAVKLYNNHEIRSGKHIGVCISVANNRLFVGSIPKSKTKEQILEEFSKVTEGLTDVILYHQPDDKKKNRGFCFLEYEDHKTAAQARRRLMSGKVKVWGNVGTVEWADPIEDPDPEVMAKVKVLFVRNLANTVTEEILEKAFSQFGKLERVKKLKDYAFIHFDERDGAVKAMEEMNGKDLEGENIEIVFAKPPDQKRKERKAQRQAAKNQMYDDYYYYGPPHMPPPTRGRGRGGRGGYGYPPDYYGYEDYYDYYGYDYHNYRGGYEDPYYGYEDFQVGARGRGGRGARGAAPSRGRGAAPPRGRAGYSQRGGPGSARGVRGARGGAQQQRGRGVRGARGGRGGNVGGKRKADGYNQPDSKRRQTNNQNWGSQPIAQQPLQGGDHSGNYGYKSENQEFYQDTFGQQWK

[4] = target: T3, GST-MSI2 (full-length human MSI2) (Homo sapiens, UniProt Q96DH6, F66A); assay: microscale thermophoresis; format: binding
T3 construct: full-length, N-terminal GST-Flag tag kept (pGEX6P3), expressed in E. coli BL21(DE3)

[5] = target: T4, GST-MSI2 (full-length human MSI2) (Homo sapiens, UniProt Q96DH6, F66A/F97A/R100A); assay: microscale thermophoresis; details: NT647-labelled protein, 50 mM HEPES, 100 mM NaCl, 0.05% Tween-20, pH 7.4, RT; no binding
T4 construct: full-length, N-terminal GST-Flag tag kept (pGEX6P3), expressed in E. coli BL21(DE3)

[6] = target: T1, GST-MSI2 (full-length human MSI2); assay: fluorescence polarization, RNA-binding inhibition
[7] = target: T5, GST-MSI2 (full-length human MSI2) (Homo sapiens, UniProt Q96DH6, K22A); assay: microscale thermophoresis; format: binding
T5 construct: full-length, N-terminal GST-Flag tag kept (pGEX6P3), expressed in E. coli BL21(DE3)

[8] = target: T6, GST-SRSF2 (Homo sapiens, UniProt Q01130); assay: microscale thermophoresis; format: binding
T6 construct: commercial GST-tagged recombinant protein
T6 sequence (Q01130 2-221): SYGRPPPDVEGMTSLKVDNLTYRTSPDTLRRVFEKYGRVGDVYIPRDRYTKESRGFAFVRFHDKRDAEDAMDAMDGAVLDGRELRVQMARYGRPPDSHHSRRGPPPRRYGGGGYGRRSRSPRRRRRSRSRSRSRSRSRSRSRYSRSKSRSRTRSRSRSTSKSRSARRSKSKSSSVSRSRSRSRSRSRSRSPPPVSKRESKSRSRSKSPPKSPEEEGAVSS

[9] = target: T7, MSI2 RRM1 (Homo sapiens, UniProt Q96DH6); assay: microscale thermophoresis; format: binding; details: NT647-labelled protein, pH 7.4, RT
T7 construct: RNA-recognition motif 1 only (nucleotides 64-270 of NM_138962.2 as printed); GST-RRM1 made in BL21(DE3); for NMR His6-SUMO fusion with tag cleaved
T7 sequence (Q96DH6 22-104): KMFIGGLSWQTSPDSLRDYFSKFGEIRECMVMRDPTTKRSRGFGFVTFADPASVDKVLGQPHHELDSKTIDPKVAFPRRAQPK

[10] = target: T8, bovine serum ALBUMIN (Bos taurus, UniProt P02769); assay: microscale thermophoresis; format: binding
T8 construct: gene ALB

[11] = target: T9, GST-MSI2 (full-length human MSI2) (Homo sapiens, UniProt Q96DH6, R100A); assay: microscale thermophoresis; format: binding
T9 construct: full-length, N-terminal GST-Flag tag kept (pGEX6P3), expressed in E. coli BL21(DE3)

[12] = target: T7, MSI2 RRM1; assay: NMR chemical shift perturbation; format: binding; details: 15N-labelled RRM1, tag removed, 20 mM MES, 150 mM NaCl, pH 6.0, 5 °C
[13] = target: T10, GST-MSI2 (full-length human MSI2) (Homo sapiens, UniProt Q96DH6, F97A); assay: microscale thermophoresis; format: binding
T10 construct: full-length, N-terminal GST-Flag tag kept (pGEX6P3), expressed in E. coli BL21(DE3)

[14] = target: T1, GST-MSI2 (full-length human MSI2); assay: fluorescence polarization, RNA-binding inhibition; format: biochemical
[15] = target: MSI2 WT (Homo sapiens, UniProt Q96DH6 1-328); assay: MST; MST: 50 mM HEPES, 100 mM NaCl, 0.05% Tween-20, pH 7.4, RT; EMSA: 10 mM HEPES, 20 mM KCl (+10 mM KCl), 1 mM MgCl2, 1 mM DTT, 5% glycerol, 100 ug/mL tRNA, 40 nM RNA, RT; details: protein: recombinant; tags: GST, Flag; single strand
[16] = target: MSI2 K22A (Homo sapiens, UniProt Q96DH6 1-328, K22A); assay: as above; details: protein: recombinant; tags: GST, Flag; single strand
[17] = target: MSI2 F66A (Homo sapiens, UniProt Q96DH6 1-328, F66A); assay: as above; details: protein: recombinant; tags: GST, Flag; single strand
[18] = target: MSI2 R100A (Homo sapiens, UniProt Q96DH6 1-328, R100A); assay: as above; details: protein: recombinant; tags: GST, Flag; single strand
[19] = target: MSI2 F97A (Homo sapiens, UniProt Q96DH6 1-328, F97A); assay: as above; details: protein: recombinant; tags: GST, Flag; single strand
Sequence of MSI2 F97A (Q96DH6 whole entry F97A): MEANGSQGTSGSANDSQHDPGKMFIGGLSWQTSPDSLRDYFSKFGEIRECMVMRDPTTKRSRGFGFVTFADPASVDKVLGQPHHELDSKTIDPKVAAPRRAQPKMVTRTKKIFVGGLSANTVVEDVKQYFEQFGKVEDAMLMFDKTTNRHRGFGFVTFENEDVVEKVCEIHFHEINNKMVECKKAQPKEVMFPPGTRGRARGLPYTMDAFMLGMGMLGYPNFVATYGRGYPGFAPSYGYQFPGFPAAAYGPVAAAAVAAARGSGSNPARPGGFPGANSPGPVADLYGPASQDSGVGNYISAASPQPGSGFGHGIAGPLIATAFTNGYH

T1 sequence (Q96DH6 whole entry): as the sequence (Q96DH6 whole entry F97A) above, with A97F counted along it
T3 sequence (Q96DH6 whole entry F66A): as the sequence (Q96DH6 whole entry F97A) above, with F66A, A97F counted along it
Sequence of MSI2 F66A (Q96DH6 whole entry F66A): as the sequence (Q96DH6 whole entry F97A) above, with F66A, A97F counted along it
Sequence of MSI2 R100A (Q96DH6 whole entry R100A): as the sequence (Q96DH6 whole entry F97A) above, with A97F, R100A counted along it
T9 sequence (Q96DH6 whole entry R100A): as the sequence (Q96DH6 whole entry F97A) above, with A97F, R100A counted along it
T5 sequence (Q96DH6 whole entry K22A): as the sequence (Q96DH6 whole entry F97A) above, with K22A, A97F counted along it
Sequence of MSI2 K22A (Q96DH6 whole entry K22A): as the sequence (Q96DH6 whole entry F97A) above, with K22A, A97F counted along it
T4 sequence (Q96DH6 whole entry F66A/F97A/R100A): as the sequence (Q96DH6 whole entry F97A) above, with F66A, R100A counted along it
T10 sequence (Q96DH6 whole entry F97A): as the sequence (Q96DH6 whole entry F97A) above
T8 sequence (P02769 25-607): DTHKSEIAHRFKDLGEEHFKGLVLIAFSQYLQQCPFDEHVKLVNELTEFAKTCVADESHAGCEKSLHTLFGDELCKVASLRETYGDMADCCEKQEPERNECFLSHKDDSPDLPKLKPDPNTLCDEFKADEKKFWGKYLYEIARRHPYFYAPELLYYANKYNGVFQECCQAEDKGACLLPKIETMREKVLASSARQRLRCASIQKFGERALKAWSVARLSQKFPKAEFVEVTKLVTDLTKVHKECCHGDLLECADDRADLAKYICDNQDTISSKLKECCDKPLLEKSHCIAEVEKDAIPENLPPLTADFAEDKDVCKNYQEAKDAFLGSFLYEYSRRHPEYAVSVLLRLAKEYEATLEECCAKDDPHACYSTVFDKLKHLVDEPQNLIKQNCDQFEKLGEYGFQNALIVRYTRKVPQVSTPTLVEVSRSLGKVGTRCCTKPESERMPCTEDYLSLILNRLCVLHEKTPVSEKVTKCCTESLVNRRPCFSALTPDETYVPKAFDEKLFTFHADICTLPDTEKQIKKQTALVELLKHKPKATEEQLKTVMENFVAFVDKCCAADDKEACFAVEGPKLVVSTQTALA
Sequence of MSI2 WT (Q96DH6 whole entry): as the sequence (Q96DH6 whole entry F97A) above, with A97F counted along it

- Kd ([1]; NT647-labelled protein, 50 mM HEPES, 100 mM NaCl, 0.05% Tween-20, pH 7.4, RT, no interaction detected up to 500 μM): > 500 µM
Molecule: CC(=O)Nc1ccc2nc3c(=O)n(C)c(=O)n(C)c3nc2c1 [Ro-NGF]
- fluorescence polarization, RNA-binding inhibition [2]: Ro-NGF failing to inhibit RNA-binding activity

- Kd [3]: 236 ± 167 µM
- Kd [4]: > 200 µM
- Kd [1]: 12.3 ± 0.5 µM
- IC50 [6]: 2700 ± 400 nM
- Kd [7]: > 200 µM
- Kd [8]: 190 ± 62 µM
- Kd [9]: 24.3 ± 4 µM
- Kd [10]: > 500 µM
- Kd [11]: 148 ± 65 µM
- Kd [13]: 69.5 ± 14.7 µM
Molecule: Cc1cc2nc3c(=O)[nH]c(=O)nc-3n(C)c2cc1C=O [Ro, Ro 08–2750]
- microscale thermophoresis [5]: The triple mutant (F66A/F97A/R100A) was incapable of binding to Ro
- NMR chemical shift perturbation [12]: observed three main regions with structural changes by titrating MSI2 with Ro

- IC50 [14]: 25 ± 8 µM
- Kd [1]: 302 ± 119 µM
Molecule: Cc1cc2nc3c(=O)[nH]c(=O)nc-3n(C)c2cc1CO [Ro-OH]

B1: 15-nt MSI RNA oligo (ssRNA)
RNA: GUAGUAGUAGUAGUA
- Kd [15]: 8.8 ± 0.9 nM
- Kd [16]: 6.4 ± 0.6 nM
- Kd [17]: 6.2 ± 0.6 nM
- Kd [18]: 6.5 ± 0.9 nM
- Kd [19]: 6.6 ± 1 nM
